Marks after values point to notes of the source that are not given here.
Columns and labels:
[1] = biological target: T1, cyclooxygenase-2 (COX2) (Homo sapiens, UniProt P35354); assay: Cyclooxygenase-2 activity in human whole blood (PGE2 after aspirin pretreatment and LPS); assay type: cell-based; conditions: for PGE2: aspirin pretreated, LPS 10 μg/ml, 18 h; for PGE2 Effect (%): percentage change vs solvent control
T1 construct: to induce the expression of COX2 25 μl of lipopolysaccharide of E. coli; endogenous in cells; host or cells: heparinised human whole blood, aspirin-pretreated, COX2 induced with LPS
T1 sequence (P35354 18-604): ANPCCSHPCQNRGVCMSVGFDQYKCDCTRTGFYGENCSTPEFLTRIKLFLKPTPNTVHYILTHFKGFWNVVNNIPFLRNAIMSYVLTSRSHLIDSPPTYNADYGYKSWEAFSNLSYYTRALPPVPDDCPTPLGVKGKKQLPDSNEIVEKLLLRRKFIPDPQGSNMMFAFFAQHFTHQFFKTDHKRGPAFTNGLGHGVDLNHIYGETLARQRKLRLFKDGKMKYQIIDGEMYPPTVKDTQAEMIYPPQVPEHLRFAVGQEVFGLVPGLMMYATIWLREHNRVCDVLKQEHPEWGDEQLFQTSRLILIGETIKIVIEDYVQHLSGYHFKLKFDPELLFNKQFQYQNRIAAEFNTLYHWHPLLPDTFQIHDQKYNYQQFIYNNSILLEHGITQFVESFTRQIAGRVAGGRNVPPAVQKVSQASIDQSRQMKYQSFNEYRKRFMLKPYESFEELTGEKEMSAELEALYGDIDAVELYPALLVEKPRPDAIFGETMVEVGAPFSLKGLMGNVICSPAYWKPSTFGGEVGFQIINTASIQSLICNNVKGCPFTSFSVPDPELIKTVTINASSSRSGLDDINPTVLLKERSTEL
Experimental: (§1) Heparinised human whole blood was used for the investigations. 100 μl of whole blood were added into each well of 96-well microtiter plates. Separated plates were used for the determination of the cyclooxygenase-1 (COX1) and lipoxygenase (LO) activiy as well as for the induction of cyclooxygenase-2 (COX2).
Then compound II and the solvent (DMEM with 0.1% DMSO), respectively, were added in a volume of 25 μl. Moreover, to induce the expression of COX2 25 μl of lipopolysaccharide of E. coli (serotype 0127:B8, final concentration 10 μg/ml) were added. After incubating for 18 h at 37° C. the plasma was recovered as described above and also stored at −80° C. until analysed.
(§2) In the plasma samples TXB2, PGE2 and cystenyl leukotrienes (cystenyl-LT) were determined as parameters for the COX1, COX2 and LO activity. For the analysis commercial EIA test kits (TXB2 and PGE2: Caymann/IBL, Hamburg; cystenyl leukotrienes: CAST-2000, Milenia, Bad Nauheim) were used in accordance with the manufacturers' instructions. […] This spectrum of efficacy is to be regarded as extremely advantageous because in the therapeutic use of compound II the side effects typical of COX1 inhibitors, such as gastrointestinal complications (erosions, ulcerations) or hemorrhages due to the inhibition of the thrombocyte aggregation need therefore not to be taken into consideration.

[2] = biological target: T2, cyclooxygenase-1 (COX1) (Homo sapiens, UniProt P23219); assay: Cyclooxygenase-1 activity in human whole blood (TXB2 after A23187); assay type: cell-based; conditions: for TXB2: A23187 50 μM; for TXB2 Effect (%): percentage change vs solvent control
T2 construct: endogenous in cells; host or cells: heparinised human whole blood (platelets), stimulated with A23187
T2 sequence (P23219 24-599): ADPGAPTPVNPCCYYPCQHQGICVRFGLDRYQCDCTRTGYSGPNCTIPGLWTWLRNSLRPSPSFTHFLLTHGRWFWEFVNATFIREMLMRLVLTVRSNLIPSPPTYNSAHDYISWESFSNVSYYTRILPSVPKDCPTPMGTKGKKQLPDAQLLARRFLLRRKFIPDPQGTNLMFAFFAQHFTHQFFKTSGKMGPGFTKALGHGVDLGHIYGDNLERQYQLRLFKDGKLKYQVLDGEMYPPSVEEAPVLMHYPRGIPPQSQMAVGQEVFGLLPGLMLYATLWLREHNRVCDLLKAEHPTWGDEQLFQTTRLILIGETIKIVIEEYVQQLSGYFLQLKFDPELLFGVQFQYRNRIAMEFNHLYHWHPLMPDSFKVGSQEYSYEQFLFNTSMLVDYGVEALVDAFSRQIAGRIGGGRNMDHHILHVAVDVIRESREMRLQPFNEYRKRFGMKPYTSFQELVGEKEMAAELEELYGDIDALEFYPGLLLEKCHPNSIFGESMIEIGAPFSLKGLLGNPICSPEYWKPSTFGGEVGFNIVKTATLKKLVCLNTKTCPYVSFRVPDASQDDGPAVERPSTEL
Experimental: as §1
(§3) Compound II was diluted in DME medium (DMEM) with 1% of antibiotics/antimycotics solution and 2 mM L-glutamine (Sigma, Deisenhofen) using DMSO (final concentration 0.1%) as solubility promoter. After adding 50 μl of compound II the tests were incubated for 60 min. at 37° C. Subsequently, 50 μl of calciumionophor A23187 (final concentration 50 μM) were added to stimulate the eicosanoid synthesis. After incubating for further 30 min. at 37° C. the microtiter plates were centrifuged for 5 min. at 4° C. with 1500 g. The plasma was pipetted off and frozen at −80° C. until analysed.
as §2

[3] = tested on: IL-1β; assay: Synthesis of IL-1β in LPS-stimulated activated murine peritoneal macrophages; assay type: cell-based, mouse; conditions: for IL-1β: LPS 1 μg/ml, 24 h, average of three parallel tests; for IL-1β Effect (%): percentage change vs solvent control
Experimental: (§4) The influence of compound II on the synthesis of the proinflammatory cytokines IL-1β, TNF-α and IL-6 was determined by using activated murine peritoneal macrophages. In order to recover the activated macrophages 3×10^9 killed coryn bacterium parvum bacteria (Changzhou Yanshen Co. Ltd., Changzhou, China) in 0.5 ml PBS were injected intraperitoneally into male NMRI mice (Centre d'Elevage Janvier, Le Genest-Saint Isle, France). 6 days later the abdominal cavity was rinsed with 2.5 ml Hanks' balanced saline solution (HBSS) free of calcium and magnesium added with 10 U/ml heparine. The cells were resuspended at a concentration of 2×10^6 cells/ml in complete RPMI medium supplemented with 10% fetal bovine serum. […] cell suspension were filled into the wells of 96-well microtiter plates, respectively. After an incubation period of 2 h non-adherent cells were removed and the remaining cell lawn was washed twice with culture medium (37° C.). The macrophages were preincubated for 30 min. with compound II and then the synthesis of proinflammatory cytokines was induced by adding 1 μg/ml lipopolysaccharide of E. coli (serotype 0127:B8, Sigma, Deisenhofen). After incubating for 24 h (37° C., 5% CO2 in air) the cells were lysed by freezing and thawing for three times, the cell supernatants were recovered and frozen at −80° C. until analysed. The determination of the cytokine concentration in the cell supernatant was effected by means of commercial test kits (Duosets IL-1β, TNF-α and IL-6, R&D, Wiesbaden) in correspondence with the manufacturer's instructions. All investigations were conducted three times. The influence of compound II on the synthesis of the cytokines was evaluated in comparison to solvent controls (0.1% DMSO in complete RPMI medium) that were tested simultaneously.

[4] = tested on: IL-6; assay: Synthesis of IL-6 in LPS-stimulated activated murine peritoneal macrophages; assay type: cell-based, mouse; conditions: for IL-6 pg/ml: LPS 1 μg/ml, 24 h, average of three parallel tests; for IL-6 Effect (%): percentage change vs solvent control
Experimental: as §4

[5] = tested on: autoxidation of lipids (brain tissue of male mice); assay: Inhibition of autoxidation of lipids in mouse brain homogenate (chemiluminescence); assay type: biochemical, mice (NMRI); conditions: chemiluminescence over 60 minutes, vs solvent control
Text: The autoxidation of lipids is associated with the emission of light. The determination of this extraordinarily weak chemiluminescence can be used for both quantifying peroxides and evaluating the efficacy of antioxidants. Brain tissue of male mice (NMRI; 20-30 g; Centre d'Elevage Janvier, Le Genest-Saint Isle, France) served as lipid-rich tissue in the present investigations. After its extraction the brain was washed with ice-cold phosphate-buffered physiological saline solution (PBS, pH 7.4) and freed from meninges and residual blood. The tissue samples were homogenised with 4 times their volume (v/w) made up of PBS and centrifugated at 1000×g and 4° C. for 10 minutes. The supernatants were immediately diluted with the same buffer to 3 times their volume and stored on ice. 250 μl of the diluted supernatant was transferred into a test tube and incubated for 10 minutes at 37° C. in a 6-channel luminometer (Multi-Biolumat LB 9505 C, Berthold, Bad Wildbad). After adding 25 μl of compound II in PBS added with 2.5% DMSO the incubation was continued for further 10 minutes. Then the intensity of the chemiluminescence (CL) was determined over a period of 60 minutes. The percentage of the inhibition of the autoxidation was calculated in comparison to the solvent control (PBS added with 2.5% DMSO) measured simultaneously. […]

[6] = biological target: T3, lipoxygenase (LO) (Homo sapiens, UniProt P09917); assay: Lipoxygenase activity in human whole blood (cystenyl-LT after A23187); assay type: cell-based; conditions: for Cystenyl-LT: A23187 50 μM; for Cystenyl-LT Effect (%): percentage change vs solvent control
T3 construct: endogenous in cells; host or cells: heparinised human whole blood (leukocytes), stimulated with A23187
T3 sequence (P09917 1-674): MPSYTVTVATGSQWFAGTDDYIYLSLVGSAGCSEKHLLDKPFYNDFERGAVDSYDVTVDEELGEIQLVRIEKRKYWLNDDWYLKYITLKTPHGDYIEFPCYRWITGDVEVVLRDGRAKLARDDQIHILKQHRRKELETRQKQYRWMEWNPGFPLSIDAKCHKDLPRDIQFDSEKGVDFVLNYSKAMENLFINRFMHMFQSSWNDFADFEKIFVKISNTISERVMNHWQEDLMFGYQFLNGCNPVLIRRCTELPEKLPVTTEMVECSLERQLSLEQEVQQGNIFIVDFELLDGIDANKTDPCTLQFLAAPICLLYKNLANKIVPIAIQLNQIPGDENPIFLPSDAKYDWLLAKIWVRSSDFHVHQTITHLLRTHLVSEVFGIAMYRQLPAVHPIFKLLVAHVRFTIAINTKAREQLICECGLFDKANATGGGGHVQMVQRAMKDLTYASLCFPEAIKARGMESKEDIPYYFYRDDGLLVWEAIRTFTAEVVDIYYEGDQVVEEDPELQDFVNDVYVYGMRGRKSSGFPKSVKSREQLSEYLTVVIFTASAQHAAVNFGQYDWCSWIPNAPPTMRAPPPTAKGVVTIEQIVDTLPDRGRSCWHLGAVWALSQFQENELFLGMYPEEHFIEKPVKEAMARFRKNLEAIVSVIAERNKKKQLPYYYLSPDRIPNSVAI
Experimental: as §1, §3, §2

[7] = tested on: TNF-α; assay: Synthesis of TNF-α in LPS-stimulated activated murine peritoneal macrophages; assay type: cell-based, mouse; conditions: for TNF-α: LPS 1 μg/ml, 24 h, average of three parallel tests; for TNF-α Effect (%): percentage change vs solvent control
Experimental: as §4

[8] = 10 μg/ml (first line so printed, r17-18), human whole blood
[9] = 10 μg/ml (first line so printed, r17-18)
[10] = 10 μg/ml (second line so printed, r19-20), human whole blood
[11] = 10 μg/ml (second line so printed, r19-20)
[12] = 30 μg/ml, human whole blood, average of two parallel tests
[13] = 100 μg/ml, human whole blood, average of two parallel tests

SMILES: O=c1ccc2cc(O)c(O)c(O)c2o1 [Compound II, 6,7,8-Trihydroxy-2H-1-benzopyran-2-one]
- PGE2 [1, 8]: 3679 pg/mL
- PGE2 Effect (%) [1, 9]: −66%
- PGE2 [1, 10]: 5499 pg/mL
- PGE2 Effect (%) [1, 11]: −49%
- PGE2 [1, 12]: 2626 pg/mL
- PGE2 Effect (%) ([1]; 30 μg/ml): −76%
- PGE2 [1, 13]: 2232 pg/mL
- PGE2 Effect (%) ([1]; 100 μg/ml): −79%
- inhibition of the activity of COX2 (in words) ([1]; human whole blood): potent inhibition
- TXB2 [2, 8]: 7825 pg/mL
- TXB2 Effect (%) [2, 9]: −20%
- TXB2 [2, 10]: 7278 pg/mL
- TXB2 Effect (%) [2, 11]: −26%
- TXB2 [2, 12]: 9993 pg/mL
- TXB2 Effect (%) ([2]; 30 μg/ml): +2%
- TXB2 [2, 13]: 9115 pg/mL
- TXB2 Effect (%) ([2]; 100 μg/ml): −7%
- effect on the activity of COX1 (in words) ([2]; human whole blood): hardly affected
- IL-1β ([3]; 10 μg/ml): 3789 pg/mL
- IL-1β Effect (%) ([3]; 10 μg/ml): +7%
- IL-1β ([3]; 30 μg/ml): 3356 pg/mL
- IL-1β Effect (%) ([3]; 30 μg/ml): −6%
- inhibition of the synthesis of IL-1β (in words) ([3]; 100 μg/ml): significant inhibition
- IL-1β ([3]; 100 μg/ml): 430 pg/mL
- IL-1β Effect (%) ([3]; 100 μg/ml): −88* %
- IL-6 pg/ml ([4]; 10 μg/ml): 23078 pg/mL
- IL-6 Effect (%) ([4]; 10 μg/ml): −27* %
- IL-6 pg/ml ([4]; 30 μg/ml): 22519 pg/mL
- IL-6 Effect (%) ([4]; 30 μg/ml): −28* %
- inhibition of the synthesis of IL-6 (in words) ([4]; 100 μg/ml): significant inhibition
- IL-6 pg/ml ([4]; 100 μg/ml): 976 pg/mL
- IL-6 Effect (%) ([4]; 100 μg/ml): −97* %
- half-maximal inhibitory concentration, autoxidation of lipids [5]: 53 ng/mL
- Cystenyl-LT [6, 8]: 3557 pg/mL
- Cystenyl-LT Effect (%) [6, 9]: −51%
- Cystenyl-LT [6, 10]: 5193 pg/mL
- Cystenyl-LT Effect (%) [6, 11]: −28%
- Cystenyl-LT [6, 12]: 2089 pg/mL
- Cystenyl-LT Effect (%) ([6]; 30 μg/ml): −71%
- Cystenyl-LT [6, 13]: 661 pg/mL
- Cystenyl-LT Effect (%) ([6]; 100 μg/ml): −91%
- inhibition of the activity of LO (in words) ([6]; human whole blood): potent inhibition
- TNF-α ([7]; 10 μg/ml): 10050 pg/mL
- TNF-α Effect (%) ([7]; 10 μg/ml): +19%
- TNF-α ([7]; 30 μg/ml): 10189 pg/mL
- TNF-α Effect (%) ([7]; 30 μg/ml): +21%
- inhibition of the synthesis of TNF-α (in words) ([7]; 100 μg/ml): significant inhibition
- TNF-α ([7]; 100 μg/ml): 6251 pg/mL
- TNF-α Effect (%) ([7]; 100 μg/ml): −26* %

SMILES: Cc1c(C)c2c(c(C)c1O)CCC(C)(C(=O)O)O2 (centres unmarked) [Trolox, reference compound]
- half-maximal inhibitory concentration, autoxidation of lipids [5]: 1665 ng/mL
